Data set [1] is described as follows: Pharmacokinetics in mice. The format is in vivo, mouse. The conditions noted are these: SQ injection of 10 mg/Kg, in words; 10 mg/kg. The method, then: Wildtype or non-transgenic (NTg) C57Bl6 mice or Sprague-Dawley rats were dosed by oral (gavage) or subcutaneous (SQ) injection at 10 or 30 mg/kg, and animals were euthanized 1, 2, 6, and 8 h after administration by ketamine/xylazine over-anesthesia, in rats, CSF was also collected, followed by transcardial collection of blood for isolation of plasma and saline perfusion. Brain tissue was collected post-mortem for assessment of compound levels and biomarkers.
Analyses of compound levels in PK studies were performed in the UCLA Pasarow Mass Spectrometry Lab (PMSL; Julian Whitelegge, Ph.D., Director). Tissues were homogenized in a bead beater using 5 vol of ice-cold 80 % acetonitrile (1/5; mg of brain/μL of 80 % ACN). Plasma analytes were extracted using 4 vol of ice-cold acetonitrile (1/4; μL of plasma/μL of 100 % ACN). Solutions were clarified by centrifugation (16,000×g, 5 min) and the supernatants were transferred to new tubes and lyophilized. Samples were reconstituted in 100 μL of 50/50/0.1 (Water/Acetonitrile/Formic Acid) prior to analysis via liquid chromatography-tandem mass spectrometry (LC-MS/MS).
An internal standard (IS) was added to every sample to account for compound loss during sample processing. Standards were made in drug naïve plasma and tissue lysates with increasing amounts of analyte (S1, S2: 0 pmol/S3, S4: 1 pmol/S5, S6: 10 pmol/S7, S8: 100 pmol, S9, S10: 1000 pmol). The standard curve was made by plotting the known amount of analyte per standard vs. the ratio of measured chromatographic peak areas corresponding to the analyte over that of the IS (analyte/IS). The trendline equation was then used to calculate the absolute concentrations of each compound in plasma and tissue.
The targeted LC-MS/MS assay was developed using the multiple reaction monitoring (MRM) acquisition method on a 6460 triple quadrupole mass spectrometer (Agilent Technologies) coupled to a 1290 Infinity HPLC system (Agilent Technologies) with a Phenomenex analytical column (Kinetex 1.7 μm C18 100 Å 100 × 2.1 mm). The HPLC method utilized a mixture of solvent A (99.9/0.1 Water/Formic Acid) and solvent B (99.9/0.1 Acetonitrile/Formic Acid) and a gradient was use for the elution of the compounds (min/%B: 0/1, 3/1, 19/99, 20/1, 30/1). Two fragment ions were monitored at specific LC retention times to ensure specificity and accurate quantification in the complex biological samples. The normalized chromatographic peak areas were determined by taking the ratio of measured chromatographic peak areas corresponding to the compound over that of the internal standard (Analyte/IS).
The Tmax, Cmax, brain-to-plasma ratios and brain levels were then calculated using PK Solutions software (SummitPK).

The test system of data set [2] is CHO-7W cells expressing wildtype human APP. The data set is described as follows: sAPPβ and Aβ1-42 production in CHO-7W cells (AlphaLISA). The data set is classed as cell-based, Chinese hamster. The conditions noted are these: in words. The method, then:
Culture Media was collected and frozen. Media was assayed using an AlphaLISA for Aβ1-42 (Perkin Elmer catalog # AL276C), sAPPα (R&D Systems catalog # AF1168 conjugated with Perkin Elmer acceptor beads catalog # 6772001 + 2B3 antibody from IBL catalog # 11088 biotinylated), and sAPPβ (Perkin Elmer AL276-acceptor + IBL catalog # 18957 biotinylated). For the assay, 2 μL of diluted or undiluted sample was added to a 384 well plate, followed by 2 μL of the respective antibody mixture. This was incubated for 1 h. Afterwards, 2 μL of donor beads was added to each well, followed by a 30-min incubation in the dark, after which the signal was read.
In general terms: Bead proximity is the source of the signal in Alpha formats.

Data set [3] has as its target BACE1 (Homo sapiens, UniProt P56817). The data set is described as follows: P5-P5′ BACE1 inhibition assay. The format is biochemical. The note with it: for IC50: cell-free, read-out: BACE1 IC50 (P5-P5′ assay; BACE1-APP).
Description: For the P5-P5′ BACE1 inhibition assay, 4 ​μL of assay buffer was added to each well, followed by 2 ​μL of BACE1 diluted in assay buffer to 7.5 ​ng/μL. Then, 2 ​μL of inhibitor, at concentrations along an 11 ​pt. two-fold dilution series starting at 10 ​μM, or 0.5 ​μM, were added to appropriate wells and incubated for 30 ​min at room temperature. For all dilutions of inhibitor, drug stock solutions of 10 ​mM in DMSO were diluted to 50 ​μM in water; subsequent dilutions were in 0.5 ​% DMSO. Afterwards, 2 ​μL of fluorogenic P5-P5′ BACE1 substrate, diluted to 50 ​μM in assay buffer, were added to each well and the signal generated was read every 30 ​min at 25 ​°C for 2 ​h.
The target in data set [4] is T1, human serum albumin (HSA) (Homo sapiens, UniProt P02768).
T1 construct: purchased Chiral Technologies H15L-109
T1 sequence (P02768 25-609): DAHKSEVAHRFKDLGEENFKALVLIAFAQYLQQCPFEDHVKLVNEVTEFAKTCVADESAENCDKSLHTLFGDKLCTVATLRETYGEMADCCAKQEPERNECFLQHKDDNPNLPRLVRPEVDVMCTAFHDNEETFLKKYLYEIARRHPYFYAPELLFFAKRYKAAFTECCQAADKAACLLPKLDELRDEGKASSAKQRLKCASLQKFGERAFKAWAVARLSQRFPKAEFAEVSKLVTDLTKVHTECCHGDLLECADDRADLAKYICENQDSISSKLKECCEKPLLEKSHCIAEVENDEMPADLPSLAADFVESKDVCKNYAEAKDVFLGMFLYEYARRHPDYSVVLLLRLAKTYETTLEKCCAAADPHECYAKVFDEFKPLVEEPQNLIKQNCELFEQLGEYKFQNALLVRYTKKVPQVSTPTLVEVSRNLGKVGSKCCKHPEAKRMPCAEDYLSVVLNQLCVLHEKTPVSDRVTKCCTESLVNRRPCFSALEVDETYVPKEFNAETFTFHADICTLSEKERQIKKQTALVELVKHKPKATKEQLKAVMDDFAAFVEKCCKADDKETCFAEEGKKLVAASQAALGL
Put plainly: Human serum albumin (HSA) binding assay. The format is in vitro ADME. How it is done: Human serum albumin (HSA) binding assay
The liquid chromatography-ultraviolet/visible spectroscopy (LC-UV/Vis) assay was performed on a 1290 Infinity HPLC system (Agilent Technologies) with an HPLC column containing immobilized HSA
([…]® CAN, Chiral Technologies, Cat#H15L-109, 5 µm 50 x 4 mm). The HPLC method utilized an isocratic gradient containing 100% 6.7 mM phosphate buffer saline (pH 7.4). The retention time of the compound (tr) and injection peak were recorded.
The percent protein binding (P) was calculated using the following equations:
K’ = (tr – tm) / tm; P = 100 x [K’ / (K’ + 1)] […]
The […]
(§1) KIAM = (tr – t0) / t0; Pm = (KIAM / MW4) x 1010
(§2) Compounds with a Pm >0.85 are predicted to be BBB permeable (CNS+) at pH 7.4.
Brain Tissue Binding Assay […]
Cat#23235). Brain homogenate was diluted to 20 mg/mL in PBS (pH 7.4) and added to Slide-A-Lyzer™ MINI Dialysis Devices, 10K MWCO dialysis cups (Thermo Fisher Scientific, Cat#PI88401) in a 48-well plate containing PBS (500 µL; pH 7.4). 1 µL of 1 mM compound was added to the brain homogenate (final concentration: 2 µM compound, 0.5% DMSO) and incubated on a rocker for 4.5 hours at 37 °C. 50 µL of brain homogenate (within the dialysis cup) and PBS (within the 48-well plate) were transferred to new microcentrifuge tubes containing 200 µL of quenching reagent (100% acetonitrile) containing internal […]
standard. […]

Data set [5] is described as follows: Brain tissue binding assay. The data set is classed as in vitro ADME, mouse. The conditions noted are these: brain homogenate, 2 µM compound. How it is done: The […]
as §1, §2
Brain Tissue Binding Assay
Brain tissue was homogenized in PBS (pH 7.4) (1: 3 weight(mg)/volume(µL)) and the protein concentration determined using the Micro BCA™ Pr otein Assay Kit (Thermo Fisher Scientific, Cat#23235). Brain homogenate was diluted to 20 mg/mL in PBS (pH 7.4) and added to Slide-A-Lyzer™ MINI Dialysis Devices, 10K MWCO dialysis cups (Thermo Fisher Scientific, Cat#PI88401) in a 48-well plate containing PBS (500 µL; pH 7.4). 1 µL of 1 mM compound was added to the brain homogenate (final concentration: 2 µM compound, 0.5% DMSO) and incubated on a rocker for 4.5 hours at 37 °C. 50 µL of brain homogenate (within the dialysis cup) and PBS (within the 48-well plate) were transferred to new microcentrifuge tubes containing 200 µL of quenching reagent (100% acetonitrile) containing internal standard. Solutions were clarified by centrifugation (16,000 x g, 5 min) and the supernatants were transferred to new tubes and lyophilized. Samples were reconstituted in 100 µL of 50/50/0.1 (Water/Acetonitrile/Formic Acid) prior to analysis via LC-MS/MS.
The % of the unbound drug was calculated using the following equation: fubound = [normalized peak area in buffer side / normalized peak area in brain side] x 100

Data set [6] is described as follows: Kinetic solubility assay. The data set is classed as physicochemical. The note with it: PBS pH 7.4, 37 °C. The method, then:
FAH65 and its enantiomers at 10 mM in 100% DMSO was diluted in PBS pH 7.4 to 100, 10, 1, and 0.1 µM; plus, a vehicle-only control. The solutions were incubated at 37 °C for 90 min and centrifuged at 16K x g for 5 min. An aliquot of each supernatant was analyzed by LC-MS/MS. A standard curve was generated by plotting the known amount of analyte per standard in DMSO vs. chromatographic peak […]
Kinetic solubility (µM) was calculated using the trendline equation with maximum chromatographic peak area observed in the aqueous sample. (Table S3)
(§3) Liver microsome stability assay
(§4) A 1 µL sample of 1 mM FAH65 and its enantiomers in 100% DMSO was added to 1 mL of 0.5 mg/mL human liver microsomes (Thermo Fisher Scientific, Cat# HMMPL) in PBS pH 7.4, 2 mM NADPH, and 2 mM MgCl2; and incubated at 37 °C for 120 min. Aliquots (50 µL) of the microsome solution were taken […]
quenching solution containing an internal standard. Solutions were clarified by centrifugation (16K x g, 5 min) and supernatants transferred to new tubes and lyophilized. Samples were reconstituted in 100 µL of 50/50/0.1 water/acetonitrile/formic acid prior to analysis via LC-MS/MS. […]
(§5) One µL FAH65 and its enantiomers (1 mM in 100% DMSO) was added to human peripheral blood plasma (Cat#70039, Stemcell Technologies Inc) diluted 2-fold in PBS (1000 µL, pH 7.4) and incubated […]

Data set [7] is described as follows: Plasma stability assay. The format is in vitro ADME. The conditions noted are these: human plasma, 37 °C, 180 min. How it is done:
The effects of candidate ASBIs on BACE2 activity was assessed using the R&D Systems BACE2 activity assay kit (Catalog #: 4097-AS and ES010) formatted from to the manufacturers. For the assay, 4 μL of assay buffer was added to each well, followed by 2 μL of BACE2 diluted in assay buffer to 10 ng/µL.
Then, 2 μL of inhibitor, at the appropriate concentrations were added to the wells and incubated for 30 minutes at room temperature. For all dilutions of inhibitor, drug stock solutions of 10 mM in DMSO were diluted to 50 μM in water; subsequent dilutions were in 0.5% DMSO. Afterwards, 2 μL of fluorogenic BACE2 substrate, diluted to 50 μM in assay buffer, were added to each well, after which the signal generated was read every 30 minutes at 25 °C for 2 hr (Fig S2).
FAH65 and its enantiomers at 10 mM in 100% DMSO was diluted in PBS pH 7.4 to 100, 10, 1, and 0.1 µM; plus, a vehicle-only control. The solutions were incubated at 37 °C for 90 min and centrifuged at 16K x g for 5 min. An aliquot of each supernatant was analyzed by LC-MS/MS. […]
Kinetic solubility (µM) was calculated using the trendline equation with maximum chromatographic peak area observed in the aqueous sample. […]
([…]® CAN, Chiral Technologies, Cat#H15L-109, 5 µm 50 x 4 mm). […] The retention time of the compound (tr) and injection peak were recorded.
The percent protein binding (P) was calculated using the following equations: […]

Data set [8] in a line: Liver microsome stability assay. The note with it: human liver microsomes. The data set is classed as in vitro ADME. The method, then:
as §3, §4
quenching solution containing an internal standard. Solutions were clarified by centrifugation (16K x g, 5 min) and supernatants transferred to new tubes and lyophilized. Samples were reconstituted in 100 µL of 50/50/0.1 water/acetonitrile/formic acid prior to analysis via LC-MS/MS.
Normalized chromatographic peak areas were plotted at each time point and the half-life (t1/2) of compound in liver microsomes was determined by using the trendline equation to calculate the time at which compound abundance was 50% of that at timepoint 0 (T0).
as §5
and 180 min, and added to a 200 µL 100% acetonitrile reaction quenching solution containing an internal standard. Solutions were clarified by centrifugation (16K x g, 5 min) and supernatants were transferred to new tubes and lyophilized. […]

Data set [9] has as its target eAPP (Homo sapiens, UniProt P05067). The data set is described as follows: APP binding by surface plasmon resonance (SPR). (In general: SPR reads the build-up and loss of mass on a sensor chip optically.)
Description: The interaction of FAH3, 17 and 65 were evaluated using the SPR protocol described previously in Descamps et al., [26].
For these pilot experiments eAPP as described in Descamps et al (26) is crosslinked to a the CM5 Biacore chip. FAH3 at various concentration was used in the flow through the chip, and the plasmon resonance signal was determined using a Biacore T100. The raw data uncorrected for contribution of running buffer is fit to equilibrium binding data and corrected for the contribution of the running buffer to
For FAH17 and FAH65-APP binding was determined using SPR to determine competition with BSA that non-specifically binds to the eAPP-Biacore chip.
In data set [10] the target is T2, BACE1 cleavage of NRG1 (Homo sapiens, UniProt P56817).
T2 construct: with or without full-length wild-type BACE1; expressed in transfected cells; host or cells: HEK293
T2 sequence (P56817 46-501): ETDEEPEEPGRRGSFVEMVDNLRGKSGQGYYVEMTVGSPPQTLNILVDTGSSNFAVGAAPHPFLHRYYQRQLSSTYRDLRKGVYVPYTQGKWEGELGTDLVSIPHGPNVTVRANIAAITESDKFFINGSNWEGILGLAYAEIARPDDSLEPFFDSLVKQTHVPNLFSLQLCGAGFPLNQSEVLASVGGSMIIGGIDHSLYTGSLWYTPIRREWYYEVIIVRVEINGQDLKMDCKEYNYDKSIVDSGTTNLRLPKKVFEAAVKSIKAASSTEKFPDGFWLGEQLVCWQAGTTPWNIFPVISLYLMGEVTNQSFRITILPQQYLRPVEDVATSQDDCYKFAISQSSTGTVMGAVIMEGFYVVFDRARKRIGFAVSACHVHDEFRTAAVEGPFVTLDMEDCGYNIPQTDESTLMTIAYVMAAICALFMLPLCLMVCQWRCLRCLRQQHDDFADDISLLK
The data set is described as follows: SEAP-NRG assay. The format is cell-based. The note with it: at ∼1 μM, in words.
Description: A cDNA construct encoding a human placental secreted alkaline phosphatase (SEAP)-NRG1 (pAPtag5-NRG1-β1) fusion protein was transfected in human embryonic kidney (HEK293) cells in a 6-well format with or without full-length wild-type BACE1 using Lipofectamine 2000 (Invitrogen) as described previously [27]. After transfection, the medium was replaced with DMEM containing the test compound at 10, 5, 1, 0.1, and 0.01 ​μM as well as 10 ​% heat-inactivated fetal bovine serum (FBS), then incubated for 24 ​h. SEAP activity was measured in the conditioned medium.

The nature of data set [11]: Pilot PK of FAH65 vs. verubecestat in rats. The format is in vivo, rat. The note with it: oral gavage, 30 mg/kg.

Values after ≈ are worked out from the molar mass of the structure shown. Values joined by “and” are separate entries in the source; they are usually repeats but may differ in a detail not shown here. Identical values can stand only once.

Chain of BACE1 (P56817 46-501): as above
Chain of eAPP (P05067 18-701): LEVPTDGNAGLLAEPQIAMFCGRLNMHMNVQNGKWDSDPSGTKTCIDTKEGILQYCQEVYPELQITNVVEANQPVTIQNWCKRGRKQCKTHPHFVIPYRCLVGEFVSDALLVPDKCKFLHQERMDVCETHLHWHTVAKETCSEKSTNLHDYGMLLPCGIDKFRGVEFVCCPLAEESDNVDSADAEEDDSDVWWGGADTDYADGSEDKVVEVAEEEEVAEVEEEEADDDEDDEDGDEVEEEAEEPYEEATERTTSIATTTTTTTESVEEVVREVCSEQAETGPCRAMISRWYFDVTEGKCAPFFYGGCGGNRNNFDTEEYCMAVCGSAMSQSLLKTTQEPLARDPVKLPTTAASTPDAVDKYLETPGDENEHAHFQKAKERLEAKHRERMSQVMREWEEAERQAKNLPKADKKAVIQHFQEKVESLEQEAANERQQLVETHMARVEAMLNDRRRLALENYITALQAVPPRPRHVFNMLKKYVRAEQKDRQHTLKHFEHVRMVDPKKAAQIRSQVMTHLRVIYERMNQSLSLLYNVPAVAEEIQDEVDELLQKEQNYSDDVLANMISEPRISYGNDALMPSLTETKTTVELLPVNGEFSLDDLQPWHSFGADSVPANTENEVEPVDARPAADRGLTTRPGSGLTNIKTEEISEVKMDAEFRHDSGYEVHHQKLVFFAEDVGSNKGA

One may read the IC50 as the point on the concentration scale where inhibition reaches its midpoint. For `CN1C(=O)C(c2ccccc2)(c2cc(F)cc(F)c2)N=C1N` (centres unmarked) [FAH1], the brain permeability result in data set [1] is “brain permeable”. For the same molecule, the Aβ42 entry in data set [2] (5 μM) was “decreased”. In addition, the half-maximal inhibitory concentration (IC50) in data set [3] was 5 to 10 µM and ~10 µM.
What is called kinetic solubility is the concentration staying in solution when a stock, usually in DMSO, is diluted into the medium. As for `Cc1cc(C2(c3cccc(-c4cncnc4)c3)N=C(N)N(C)C2=O)ccc1OC(F)F` (stereo not drawn) [FAH65E(+)], the “Plasma (HSA) binding, funbound” value in [4] was found to be 0.8%. For the same molecule, the “Brain tissue binding, funbound” value in data set [5] was determined as 6.2%. In addition, the “Activity in the P5-P5′ assay” value in data set [3] (in words) is “inactive”. This molecule yielded a solubility (kinetic) at 90 min in data set [6] of 87 µM (≈ 36.8 µg/mL). Moreover, the “Plasma stability t1/2” value in data set [7] is more than 3 h. For the same molecule, the “Microsomal stability T1/2” value in data set [8] was 0.4 h.
By inhibition is commonly meant how much of the control response was suppressed. Consider `Cc1cc(C2(c3cc(F)cc(F)c3)N=C(N)N(C)C2=O)ccc1OC(F)F` (centres unmarked) [FAH3], for which the brain permeability result in [1] is recorded as “had brain permeability”. The same molecule registered a Kd in data set [9] of approximately 0.3 µM. In addition, the Aβ1-42 production entry in data set [2] (1 μM) was “decreased”. Further, in data set [10], the “inhibition of SEAP-NRG cleavage” value was “no SEAP-NRG cleavage”. Also, in [3] (at ∼1 μM, read-out: inhibition of BACE1 cleavage of APP), the inhibition at 1 µM was determined as 50%. The IC50 in data set [3] was 1 to 4 µM and ~1 µM and 0.5 to 1 µM.
What is called Cmax is the peak of the concentration-time curve. For the molecule `CN1C(=N)N[C@](C)(c2cc(NC(=O)c3ccc(F)cn3)ccc2F)CS1(=O)=O` [Veru, verubecestat, reference compound], the Cmax in [11] (both sexes, Sprague-Dawley, rat, brain) was determined as 157 ng/g. For the same molecule, the “time of brain Cmax” value in data set [11] was 2 h.

The values are drawn from publication PMC12491701, “Discovery of an APP-selective BACE1 inhibitor for Alzheimer's disease” (Neurotherapeutics, 2025).
